Measurements as given in ChEMBL document CHEMBL3098001, “Synthesis and biological evaluation of cyclopentyl-triazolol-pyrimidine (CPTP) based P2Y12 antagonists” (Bioorg Med Chem Lett, 2014).

How the values were obtained:
[1] = AUC in rat at 10 mg/kg, po; format: ADME, organism-based; parameters: dose 10 mg/kg, route oral; settings: plasma
[2] = Cmax in rat at 10 mg/kg, po; format: ADME, organism-based; parameters: dose 10 mg/kg, route oral; settings: in vivo
[3] = Half life in rat at 10 mg/kg, po; format: ADME, organism-based; parameters: dose 10 mg/kg, route oral; settings: in vivo
Rattus norvegicus [4] = assay: (§1) Apparent volume of distribution during terminal phase in rat at 10 mg/kg, po; format: ADME, organism-based; parameters: dose 10 mg/kg, route oral; settings: in vivo
[5] = molecular target: P2Y purinoceptor 12 (Rattus norvegicus) (UniProt Q9EPX4); assay: Antagonist activity at P2Y12 receptor in rat platelet-rich plasma assessed as inhibition of ADP-induced platelet aggregation at 3 uM incubated for 5 mins prior to ADP-challenge by light transmission-based assay
[6] = as §1; format: ADME, organism-based; parameters: dose 10 mg/kg, route oral; settings: in vivo, read-out: Vz/F
[7] = Apparent oral clearance in rat at 10 mg/kg; format: ADME, organism-based; parameters: dose 10 mg/kg, route oral; settings: in vivo
Rattus norvegicus [8] = assay: Inhibition of ADP-induced platelet aggregation in Sprague-Dawley rat assessed as blood loss volume at 2.5 mg/kg, po administered 2 hrs prior to transection measured for 30 mins (reference value: < 0.5 ml); format: organism-based; parameters: dose 2.5 mg/kg, route oral; settings: in vivo, 0.5 h
Rattus norvegicus [9] = assay: Inhibition of ADP-induced platelet aggregation in Sprague-Dawley rat assessed as bleeding time at 2.5 mg/kg, po after 2 hrs (reference value: 9.4 mins); format: organism-based; parameters: dose 2.5 mg/kg, route oral; settings: in vivo
Rattus norvegicus [10] = assay: Inhibition of ADP-induced platelet aggregation in Sprague-Dawley rat plasma at 2.5 mg/kg, po treated 2.5 hrs prior to ADP-challenge measured after 2 mins by light transmission-based assay; format: functional
[11] = AUC in dog at 1 mg/kg, po; format: ADME, organism-based, Canis lupus familiaris; parameters: dose 1 mg/kg, route oral; settings: plasma
[12] = Cmax in dog at 1 mg/kg, po; format: ADME, organism-based, Canis lupus familiaris; parameters: dose 1 mg/kg, route oral; settings: in vivo
[13] = Half life in dog at 1 mg/kg, po; format: ADME, organism-based, Canis lupus familiaris; parameters: dose 1 mg/kg, route oral; settings: in vivo
[14] = Apparent volume of distribution during terminal phase in dog at 1 mg/kg, po; format: ADME, organism-based, Canis lupus familiaris; parameters: dose 1 mg/kg, route oral; settings: in vivo, read-out: Vz/F
[15] = Apparent oral clearance in dog at 1 mg/kg; format: ADME, organism-based, Canis lupus familiaris; parameters: dose 1 mg/kg, route oral; settings: in vivo
Rattus norvegicus [16] = assay: Inhibition of ADP-induced platelet aggregation in Sprague-Dawley rat assessed as blood loss volume at 10 mg/kg, po administered 2 hrs prior to transection measured for 30 mins (reference value: < 0.5 ml); format: organism-based; parameters: dose 10 mg/kg, route oral; settings: in vivo, 0.5 h
Rattus norvegicus [17] = assay: Inhibition of ADP-induced platelet aggregation in Sprague-Dawley rat assessed as blood loss volume at 5 mg/kg, po administered 2 hrs prior to transection measured for 30 mins (reference value: < 0.5 ml); format: organism-based; parameters: dose 5 mg/kg, route oral; settings: in vivo, 0.5 h
Rattus norvegicus [18] = assay: Inhibition of ADP-induced platelet aggregation in Sprague-Dawley rat assessed as blood loss volume at 1.25 mg/kg, po administered 2 hrs prior to transection measured for 30 mins (reference value: < 0.5 ml); format: organism-based; parameters: dose 1.25 mg/kg, route oral; settings: in vivo, 0.5 h
Rattus norvegicus [19] = assay: Inhibition of ADP-induced platelet aggregation in Sprague-Dawley rat assessed as blood loss volume at 0.625 mg/kg, po administered 2 hrs prior to transection measured for 30 mins (reference value: < 0.5 ml); format: organism-based; parameters: dose 0.625 mg/kg, route oral; settings: in vivo, 0.5 h
Rattus norvegicus [20] = assay: Inhibition of ADP-induced platelet aggregation in Sprague-Dawley rat assessed as bleeding time at 10 mg/kg, po after 2 hrs (reference value: 9.4 mins); format: organism-based; parameters: dose 10 mg/kg, route oral; settings: in vivo
Rattus norvegicus [21] = assay: Inhibition of ADP-induced platelet aggregation in Sprague-Dawley rat assessed as bleeding time at 5 mg/kg, po after 2 hrs (reference value: 9.4 mins); format: organism-based; parameters: dose 5 mg/kg, route oral; settings: in vivo
Rattus norvegicus [22] = assay: Inhibition of ADP-induced platelet aggregation in Sprague-Dawley rat assessed as bleeding time at 1.25 mg/kg, po after 2 hrs (reference value: 9.4 mins); format: organism-based; parameters: dose 1.25 mg/kg, route oral; settings: in vivo
Rattus norvegicus [23] = assay: Inhibition of ADP-induced platelet aggregation in Sprague-Dawley rat assessed as bleeding time at 0.625 mg/kg, po after 2 hrs (reference value: 9.4 mins); format: organism-based; parameters: dose 0.625 mg/kg, route oral; settings: in vivo
Cytochrome P450 2C9 = Cytochrome P450 2C9 (Homo sapiens, UniProt P11712); assay: Inhibition of CYP2C9 (unknown origin); format: ADME
[24] = Inhibition of CYP450 (unknown origin) at 30 uM; format: ADME; settings: human
[25] = molecular target: Voltage-gated inwardly rectifying potassium channel KCNH2 (Homo sapiens, UniProt Q12809); assay: Inhibition of human ERG channel at 10 uM by patch-clamp technique
Chain of Voltage-gated inwardly rectifying potassium channel KCNH2 (Q12809 whole entry): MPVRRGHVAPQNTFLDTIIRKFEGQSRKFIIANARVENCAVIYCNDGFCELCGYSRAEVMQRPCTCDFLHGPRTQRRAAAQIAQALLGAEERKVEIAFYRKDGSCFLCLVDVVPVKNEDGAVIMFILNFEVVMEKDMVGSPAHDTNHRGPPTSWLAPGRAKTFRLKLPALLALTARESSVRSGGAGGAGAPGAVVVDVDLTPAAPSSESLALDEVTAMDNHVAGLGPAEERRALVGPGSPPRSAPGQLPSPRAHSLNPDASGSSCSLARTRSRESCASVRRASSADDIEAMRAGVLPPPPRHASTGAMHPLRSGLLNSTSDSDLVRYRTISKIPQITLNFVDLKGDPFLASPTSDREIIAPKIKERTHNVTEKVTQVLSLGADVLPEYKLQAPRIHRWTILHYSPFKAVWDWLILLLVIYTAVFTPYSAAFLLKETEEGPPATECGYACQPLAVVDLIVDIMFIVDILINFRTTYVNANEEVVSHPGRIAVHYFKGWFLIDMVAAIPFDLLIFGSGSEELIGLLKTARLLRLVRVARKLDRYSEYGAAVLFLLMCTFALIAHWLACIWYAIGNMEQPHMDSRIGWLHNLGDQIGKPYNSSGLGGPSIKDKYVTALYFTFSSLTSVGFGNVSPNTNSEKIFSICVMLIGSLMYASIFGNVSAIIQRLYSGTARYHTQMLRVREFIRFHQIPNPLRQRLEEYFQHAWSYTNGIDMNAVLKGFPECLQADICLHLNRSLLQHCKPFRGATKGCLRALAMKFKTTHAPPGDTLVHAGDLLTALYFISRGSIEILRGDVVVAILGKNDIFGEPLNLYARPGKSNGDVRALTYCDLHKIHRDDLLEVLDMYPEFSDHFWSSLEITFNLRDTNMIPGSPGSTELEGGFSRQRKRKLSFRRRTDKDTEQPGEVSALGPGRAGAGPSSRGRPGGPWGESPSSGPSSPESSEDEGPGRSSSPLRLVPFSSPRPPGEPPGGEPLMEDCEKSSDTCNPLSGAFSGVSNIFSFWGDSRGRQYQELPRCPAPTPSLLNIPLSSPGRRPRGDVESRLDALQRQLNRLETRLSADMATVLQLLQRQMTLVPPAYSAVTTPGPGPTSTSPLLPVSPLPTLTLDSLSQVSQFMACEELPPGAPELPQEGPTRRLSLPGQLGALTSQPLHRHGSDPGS

Chain of P2Y purinoceptor 12 (Rattus norvegicus) (Q9EPX4 whole entry): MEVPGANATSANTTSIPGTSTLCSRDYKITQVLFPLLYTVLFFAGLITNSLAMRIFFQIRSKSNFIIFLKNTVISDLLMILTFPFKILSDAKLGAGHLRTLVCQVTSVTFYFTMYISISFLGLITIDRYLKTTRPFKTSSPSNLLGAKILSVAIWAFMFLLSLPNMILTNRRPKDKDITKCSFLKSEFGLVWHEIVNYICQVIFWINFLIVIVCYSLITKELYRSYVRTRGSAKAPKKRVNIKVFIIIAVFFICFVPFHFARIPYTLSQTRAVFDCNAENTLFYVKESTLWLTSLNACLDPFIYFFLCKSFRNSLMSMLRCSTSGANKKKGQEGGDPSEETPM
Chain of Cytochrome P450 2C9 (P11712 whole entry): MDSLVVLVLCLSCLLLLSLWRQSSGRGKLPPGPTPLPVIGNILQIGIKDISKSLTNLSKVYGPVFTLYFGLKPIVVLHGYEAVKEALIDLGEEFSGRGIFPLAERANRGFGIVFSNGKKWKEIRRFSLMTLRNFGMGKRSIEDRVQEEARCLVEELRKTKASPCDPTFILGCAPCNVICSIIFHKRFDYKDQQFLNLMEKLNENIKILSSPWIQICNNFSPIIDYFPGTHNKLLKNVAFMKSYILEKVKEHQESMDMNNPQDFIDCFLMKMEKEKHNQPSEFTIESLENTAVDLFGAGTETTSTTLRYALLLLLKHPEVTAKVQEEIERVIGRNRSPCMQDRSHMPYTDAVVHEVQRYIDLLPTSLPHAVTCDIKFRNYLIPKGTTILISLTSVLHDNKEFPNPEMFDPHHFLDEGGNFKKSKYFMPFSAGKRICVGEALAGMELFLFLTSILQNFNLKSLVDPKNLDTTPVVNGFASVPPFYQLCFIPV

For `CCCSc1nc(N[C@@H]2C[C@H]2c2ccc(F)c(F)c2)c2nnn([C@@H]3C[C@H](OCC(O)CO)[C@@H](O)[C@H]3O)c2n1` (mixture of isomers), the AUC [1] was 13.8 ng·h/mL, the Cmax [2] was 3.89 ng/mL and the half-life [3] was 1.72 h. The Vz/F (Rattus norvegicus [4]) was 1513 L/kg.
Work on `CCCSc1nc(NC2Cc3ccccc3C2)c2nnn([C@@H]3C[C@H](OCCO)[C@@H](O)[C@H]3O)c2n1` yielded an inhibition [5] of 0%.
`CCCSc1nc(N[C@@H]2C[C@H]2c2ccc(Cl)s2)c2nnn([C@@H]3C[C@H](OCCO)[C@@H](O)[C@H]3O)c2n1` gave an AUC [1] of 64.4 ng·h/mL, a Cmax [2] of 28.7 ng/mL and a half-life [3] of 3.35 h. For the same molecule, the Vd/F [6] was 206 L/kg and the CL/F [7] was 712 mL/min/kg.
With `CCCSc1nc(N[C@@H]2C[C@H]2c2ccc(F)c(F)c2)c2nnn([C@@H]3C[C@H](OCCO)[C@@H](O)[C@H]3O)c2n1` [TICAGRELOR] the Activity (Rattus norvegicus [8]) was 0.5 mL, the Time (Rattus norvegicus [9]) was greater than 30 min and the inhibition in vivo at 2.5 mg/kg (Rattus norvegicus [10]) was 59%. It also gave an AUC [11] of 504 ng·h/mL, a Cmax [12] of 125 ng/mL and a half-life [13] of 2.03 h. The Vd/F [14] was 5.76 L/kg, the CL/F [15] was 32.8 mL/min/kg and the AUC [1] was 1400 ng·h/mL. The Cmax [2] was 267 ng/mL, the half-life [3] was 2.23 h and the Vd/F [6] was 24.2 L/kg. The CL/F [7] was 133 mL/min/kg.
Work on `CCCSc1nc(N[C@@H]2C[C@H]2c2ccc(F)c(F)c2)c2nnn(C3[C@H](O)[C@H](O)[C@@H](O)[C@H]3O)c2n1` (some centres undefined) yielded an AUC [1] of 146 ng·h/mL, a Cmax [2] of 55.4 ng/mL and a half-life [3] of 1.7 h. The Vd/F [6] was 217 L/kg and the CL/F [7] was 2200 mL/min/kg.
`CCCSc1nc(N[C@@H]2C[C@H]2c2ccc(F)c(F)c2)c2nnn([C@@H]3C[C@H](F)[C@@H](O)[C@H]3O)c2n1` gave an AUC [11] of 24.3 ng·h/mL, a Cmax [12] of 8.29 ng/mL and a half-life [13] of 1.21 h. For the same molecule, the Vd/F [14] was 88.4 L/kg, the CL/F [15] was 865 mL/min/kg and the AUC [1] was 1270 ng·h/mL. For the same molecule, the Cmax [2] was 195 ng/mL, the half-life [3] was 2.33 h and the Vd/F [6] was 27.1 L/kg. The CL/F [7] was 137 mL/min/kg.
In the case of `CCCSc1nc(N[C@@H]2C[C@H]2c2ccc(F)c(F)c2)c2nnn([C@H]3[C@H](O)[C@H](O)[C@@H](O)[C@H]3F)c2n1`, the Activity (Rattus norvegicus [16]) is reported as 1.75 mL, the Activity (Rattus norvegicus [17]) is reported as 0.9 mL and the Activity (Rattus norvegicus [8]) is reported as less than 0.5 mL. It also gave an Activity (Rattus norvegicus [18]) of less than 0.5 mL, an Activity (Rattus norvegicus [19]) of less than 0.5 mL and a Time (Rattus norvegicus [20]) greater than 30 min. It also gave a Time (Rattus norvegicus [21]) greater than 30 min, a Time (Rattus norvegicus [9]) of 9.76 min and a Time (Rattus norvegicus [22]) of 10.67 min. The Time (Rattus norvegicus [23]) was 8.59 min, the inhibition in vivo at 2.5 mg/kg (Rattus norvegicus [10]) was 95% and the IC50 (Cytochrome P450 2C9) was 8.82 µM. For the same molecule, the “inhibition (INH)” value [24] was “Not Active”, the “inhibition (INH)” value [25] was “Not Active” and the AUC [11] was 469 ng·h/mL. The Cmax [12] was 110 ng/mL, the half-life [13] was 1.94 h and the Vd/F [14] was 6.26 L/kg. The CL/F [15] was 36.7 mL/min/kg, the AUC [1] was 1200 ng·h/mL and the Cmax [2] was 303 ng/mL. For the same molecule, the half-life [3] was 3.56 h, the Vd/F [6] was 43.4 L/kg and the CL/F [7] was 139 mL/min/kg.
With `CCCSc1nc(N[C@@H]2C[C@H]2c2ccc(F)c(F)c2)c2nnn([C@@H]3C[C@H](OCCOCCO)[C@@H](O)[C@H]3O)c2n1` the inhibition [5] was 0%.
Work on `CCCSc1nc(N[C@@H]2C[C@H]2c2ccc(F)c(F)c2)c2nnn([C@H]3[C@H](O)[C@H](O)[C@]4(CO)C[C@H]34)c2n1` yielded an inhibition [5] of 0%.
With `CCCSc1nc(N[C@@H]2C[C@H]2c2ccc(F)c(F)c2)c2nnn([C@H]3[C@H](O)[C@H](O)[C@@H](OCCO)[C@H]3F)c2n1` the AUC [11] was 218 ng·h/mL, the Cmax [12] was 55.6 ng/mL and the half-life [13] was 2.46 h. It also gave a Vd/F [14] of 15.4 L/kg, a CL/F [15] of 72.3 mL/min/kg and an AUC [1] of 512 ng·h/mL. It also gave a Cmax [2] of 127 ng/mL, a half-life [3] of 2.83 h and a Vd/F [6] of 82.4 L/kg. It also gave a CL/F [7] of 350 mL/min/kg.
